Source: PubChem BioAssay (NCI)
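48-hour exposure; five concentrations; linearly interpolated endpoints. At the GI50, growth is halved. TGI marks complete inhibition of growth.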

What was measured:
Experiment in all cases: NCI anticancer screen, dose series, 48 h
786-0 renal = tested on: 786-0 renal
A498 renal = tested on: A498 renal
A549 NSCLC = tested on: A549 NSCLC
ACHN renal = tested on: ACHN renal
BT-549 breast = tested on: BT-549 breast
CAKI-1 renal = tested on: CAKI-1 renal
CCRF-CEM leukemia = tested on: CCRF-CEM leukemia
COLO 205 colon = tested on: COLO 205 colon
DU-145 prostate = tested on: DU-145 prostate
EKVX NSCLC = tested on: EKVX NSCLC
HCC-2998 colon = tested on: HCC-2998 colon
HCT-116 colon = tested on: HCT-116 colon
HCT-15 colon = tested on: HCT-15 colon
HL-60(TB) leukemia = tested on: HL-60(TB) leukemia
HOP-62 NSCLC = tested on: HOP-62 NSCLC
HOP-92 NSCLC = tested on: HOP-92 NSCLC
HS 578T breast = tested on: HS 578T breast
HT29 colon = tested on: HT29 colon
IGROV1 ovarian = tested on: IGROV1 ovarian
K-562 leukemia = tested on: K-562 leukemia
KM12 colon = tested on: KM12 colon
LOX IMVI melanoma = tested on: LOX IMVI melanoma
M14 melanoma = tested on: M14 melanoma
MALME-3M melanoma = tested on: MALME-3M melanoma
MCF7 breast = tested on: MCF7 breast
MDA-MB-231 breast = tested on: MDA-MB-231 breast
MOLT-4 leukemia = tested on: MOLT-4 leukemia
NCI-H226 lung = tested on: NCI-H226 lung
NCI-H23 lung = tested on: NCI-H23 lung
NCI-H460 lung = tested on: NCI-H460 lung
NCI-H522 lung = tested on: NCI-H522 lung
NCI/ADR-RES ovarian = tested on: NCI/ADR-RES ovarian
OVCAR-3 ovarian = tested on: OVCAR-3 ovarian
OVCAR-4 ovarian = tested on: OVCAR-4 ovarian
OVCAR-5 ovarian = tested on: OVCAR-5 ovarian
OVCAR-8 ovarian = tested on: OVCAR-8 ovarian
PC-3 prostate = tested on: PC-3 prostate
RPMI-8226 leukemia = tested on: RPMI-8226 leukemia
RXF 393 renal = tested on: RXF 393 renal
SF-268 CNS = tested on: SF-268 CNS
SF-295 CNS = tested on: SF-295 CNS
SF-539 CNS = tested on: SF-539 CNS
SK-MEL-2 melanoma = tested on: SK-MEL-2 melanoma
SK-MEL-5 melanoma = tested on: SK-MEL-5 melanoma
SK-OV-3 ovarian = tested on: SK-OV-3 ovarian
SN12C renal = tested on: SN12C renal
SNB-19 CNS = tested on: SNB-19 CNS
SNB-75 CNS = tested on: SNB-75 CNS
SR leukemia = tested on: SR leukemia
SW-620 colon = tested on: SW-620 colon
T-47D breast = tested on: T-47D breast
TK-10 renal = tested on: TK-10 renal
U251 CNS = tested on: U251 CNS
UACC-62 melanoma = tested on: UACC-62 melanoma
UO-31 renal = tested on: UO-31 renal

`COc1ccc(C(O)c2cc3c(N)c(C(=O)Nc4ccccc4)sc3nc2C)cc1` (stereo not given) was tested. Which GI50 (786-0 renal) did it give?
The GI50 was 76.3 nM.

And the TGI (786-0 renal)?
The TGI was 25.3 µM.

And the GI50 (A498 renal)?
The GI50 was 26.2 nM.

And the TGI (A498 renal)?
The TGI was 2790 nM.

What about the GI50 (A549 NSCLC) of the same compound?
The GI50 was 62.8 nM.

What about the TGI (A549 NSCLC) of the same compound?
The TGI was over 100 µM.

And the GI50 (ACHN renal)?
The GI50 was 68.3 nM.

And the TGI (ACHN renal)?
The TGI was 27.5 µM.

What about the GI50 (BT-549 breast) of the same compound?
The GI50 was 186 nM.

And the TGI (BT-549 breast)?
Its TGI is 36.4 µM.

What about the GI50 (CAKI-1 renal) of the same compound?
The GI50 was 41.6 nM.

What about the TGI (CAKI-1 renal) of the same compound?
Its TGI is 20.7 µM.

What about the GI50 (CCRF-CEM leukemia) of the same compound?
The GI50 was 38.3 nM.

What about the TGI (CCRF-CEM leukemia) of the same compound?
Its TGI is over 100 µM.

And the GI50 (COLO 205 colon)?
The GI50 was 219 nM.

What about the TGI (COLO 205 colon) of the same compound?
The TGI was 1800 nM.

And the GI50 (DU-145 prostate)?
The GI50 was 41.4 nM.

And the TGI (DU-145 prostate)?
The TGI was 50.6 µM.

And the GI50 (EKVX NSCLC)?
The GI50 was 61.7 nM.

What about the TGI (EKVX NSCLC) of the same compound?
The TGI was over 100 µM.

What about the GI50 (HCC-2998 colon) of the same compound?
Its GI50 is 102 nM.

And the TGI (HCC-2998 colon)?
Its TGI is 3.79 µM.

And the GI50 (HCT-116 colon)?
The GI50 was 42.5 nM.

What about the TGI (HCT-116 colon) of the same compound?
Its TGI is over 35.4 µM.

What about the GI50 (HCT-15 colon) of the same compound?
The GI50 was 40.3 nM.

What about the TGI (HCT-15 colon) of the same compound?
Its TGI is over 100 µM.

What about the GI50 (HL-60(TB) leukemia) of the same compound?
The GI50 was 32.4 nM.

What about the TGI (HL-60(TB) leukemia) of the same compound?
Its TGI is 459 nM.

What about the GI50 (HOP-62 NSCLC) of the same compound?
The GI50 was 77.4 nM.

And the TGI (HOP-62 NSCLC)?
The TGI was 68.6 µM.

And the GI50 (HOP-92 NSCLC)?
The GI50 was 54.6 nM.

What about the TGI (HOP-92 NSCLC) of the same compound?
Its TGI is 12.1 µM.

What about the GI50 (HS 578T breast) of the same compound?
The GI50 was 30.5 nM.

What about the TGI (HS 578T breast) of the same compound?
The TGI was 3.01 µM.

What about the GI50 (HT29 colon) of the same compound?
The GI50 was 33.3 nM.

And the TGI (HT29 colon)?
The TGI was 8.6 µM.

And the GI50 (IGROV1 ovarian)?
Its GI50 is 94 nM.

And the TGI (IGROV1 ovarian)?
Its TGI is 22.6 µM.

And the GI50 (K-562 leukemia)?
The GI50 was 38.2 nM.

What about the TGI (K-562 leukemia) of the same compound?
The TGI was over 100 µM.

And the GI50 (KM12 colon)?
The GI50 was 40.3 nM.

And the TGI (KM12 colon)?
Its TGI is over 100 µM.

And the GI50 (LOX IMVI melanoma)?
The GI50 was 53.9 nM.

And the TGI (LOX IMVI melanoma)?
Its TGI is over 100 µM.

What about the GI50 (M14 melanoma) of the same compound?
Its GI50 is 34.9 nM.

And the TGI (M14 melanoma)?
Its TGI is over 100 µM.

And the GI50 (MALME-3M melanoma)?
Its GI50 is 51 nM.

And the TGI (MALME-3M melanoma)?
The TGI was 35.1 µM.

What about the GI50 (MCF7 breast) of the same compound?
The GI50 was 34.5 nM.

What about the TGI (MCF7 breast) of the same compound?
The TGI was 19.3 µM.

And the GI50 (MDA-MB-231 breast)?
Its GI50 is 72.8 nM.

And the TGI (MDA-MB-231 breast)?
The TGI was 9.63 µM.

And the GI50 (MOLT-4 leukemia)?
Its GI50 is 50.8 nM.

And the TGI (MOLT-4 leukemia)?
Its TGI is over 100 µM.

What about the GI50 (NCI-H226 lung) of the same compound?
The GI50 was 57.9 nM.

And the TGI (NCI-H226 lung)?
The TGI was 1870 nM.

And the GI50 (NCI-H23 lung)?
The GI50 was 75.4 nM.

What about the TGI (NCI-H23 lung) of the same compound?
The TGI was over 50.1 µM.

And the GI50 (NCI-H460 lung)?
Its GI50 is 36.1 nM.

What about the TGI (NCI-H460 lung) of the same compound?
The TGI was 11.1 µM.

And the GI50 (NCI-H522 lung)?
Its GI50 is 34.7 nM.

What about the TGI (NCI-H522 lung) of the same compound?
Its TGI is 2570 nM.

What about the GI50 (NCI/ADR-RES ovarian) of the same compound?
The GI50 was 38.1 nM.

What about the TGI (NCI/ADR-RES ovarian) of the same compound?
Its TGI is 2020 nM.

And the GI50 (OVCAR-3 ovarian)?
Its GI50 is 32.1 nM.

And the TGI (OVCAR-3 ovarian)?
Its TGI is 1270 nM.

And the GI50 (OVCAR-4 ovarian)?
Its GI50 is 2030 nM.

What about the TGI (OVCAR-4 ovarian) of the same compound?
Its TGI is over 100 µM.

And the GI50 (OVCAR-5 ovarian)?
The GI50 was 71.4 nM.

What about the TGI (OVCAR-5 ovarian) of the same compound?
Its TGI is 25.4 µM.

What about the GI50 (OVCAR-8 ovarian) of the same compound?
Its GI50 is 63.6 nM.

And the TGI (OVCAR-8 ovarian)?
The TGI was over 100 µM.

And the GI50 (PC-3 prostate)?
The GI50 was 140 nM.

And the TGI (PC-3 prostate)?
Its TGI is over 74.3 µM.

And the GI50 (RPMI-8226 leukemia)?
Its GI50 is 41.6 nM.

And the TGI (RPMI-8226 leukemia)?
The TGI was over 100 µM.

What about the GI50 (RXF 393 renal) of the same compound?
Its GI50 is 28.6 nM.

And the TGI (RXF 393 renal)?
The TGI was 911 nM.

And the GI50 (SF-268 CNS)?
Its GI50 is 174 nM.

What about the TGI (SF-268 CNS) of the same compound?
The TGI was over 70 µM.

What about the GI50 (SF-295 CNS) of the same compound?
The GI50 was 35.2 nM.

And the TGI (SF-295 CNS)?
Its TGI is 12.6 µM.

What about the GI50 (SF-539 CNS) of the same compound?
The GI50 was 34.8 nM.

And the TGI (SF-539 CNS)?
Its TGI is 825 nM.

And the GI50 (SK-MEL-2 melanoma)?
Its GI50 is 238 nM.

What about the TGI (SK-MEL-2 melanoma) of the same compound?
The TGI was over 100 µM.

What about the GI50 (SK-MEL-5 melanoma) of the same compound?
The GI50 was 35.9 nM.

And the TGI (SK-MEL-5 melanoma)?
Its TGI is 591 nM.

And the GI50 (SK-OV-3 ovarian)?
The GI50 was 53.9 nM.

And the TGI (SK-OV-3 ovarian)?
The TGI was 25.4 µM.

What about the GI50 (SN12C renal) of the same compound?
The GI50 was 62.8 nM.

And the TGI (SN12C renal)?
Its TGI is 29.5 µM.

What about the GI50 (SNB-19 CNS) of the same compound?
The GI50 was 44.3 nM.

And the TGI (SNB-19 CNS)?
Its TGI is 20.4 µM.

And the GI50 (SNB-75 CNS)?
The GI50 was 26.7 nM.

And the TGI (SNB-75 CNS)?
Its TGI is 21.9 µM.

And the GI50 (SR leukemia)?
Its GI50 is 33.3 nM.

And the TGI (SR leukemia)?
The TGI was over 100 µM.

What about the GI50 (SW-620 colon) of the same compound?
Its GI50 is 39.1 nM.

And the TGI (SW-620 colon)?
The TGI was over 100 µM.

And the GI50 (T-47D breast)?
The GI50 was 51.4 nM.

What about the TGI (T-47D breast) of the same compound?
The TGI was over 100 µM.

What about the GI50 (TK-10 renal) of the same compound?
Its GI50 is 4.51 µM.

What about the TGI (TK-10 renal) of the same compound?
The TGI was 49.8 µM.

And the GI50 (U251 CNS)?
Its GI50 is 42.5 nM.

And the TGI (U251 CNS)?
The TGI was 29.7 µM.

What about the GI50 (UACC-62 melanoma) of the same compound?
The GI50 was 39.7 nM.

What about the TGI (UACC-62 melanoma) of the same compound?
Its TGI is 19.4 µM.

And the GI50 (UO-31 renal)?
The GI50 was 70.6 nM.

What about the TGI (UO-31 renal) of the same compound?
Its TGI is 49.8 µM.
